Experiments:
Details in all cases: 72 h
[1] = tested on: HepG2; test: relative viability EC50 (midpoint between 100% and the lowest measured viability); higher = less toxic
[2] = tested on: Caco-2; test: as above
[3] = tested on: Vero E6; test: as above
[4] = tested on: U2OS; test: as above
[5] = tested on: Calu-3; test: as above
[6] = tested on: HepG2; test: drug sensitivity score (DSS) for viability; higher = more toxic; extreme values may be limits of the assay
[7] = tested on: Caco-2; test: as above
[8] = tested on: Vero E6; test: as above
[9] = tested on: U2OS; test: as above
[10] = tested on: Calu-3; test: as above
[11] = tested on: HepG2; test: cell viability relative to DMSO; higher = less toxic
[12] = tested on: Caco-2; test: as above
[13] = tested on: Vero E6; test: as above
[14] = tested on: U2OS; test: as above
[15] = tested on: Calu-3; test: as above

| SMILES | relative viability EC50 [1] | relative viability EC50 [2] | relative viability EC50 [3] | relative viability EC50 [4] | relative viability EC50 [5] | drug sensitivity score [6] | drug sensitivity score [7] | drug sensitivity score [8] | drug sensitivity score [9] | drug sensitivity score [10] | cell viability ([11]; 1 nM) | cell viability ([11]; 10 nM) | cell viability ([11]; 100 nM) | cell viability ([11]; 1000 nM) | cell viability ([11]; 10000 nM) | cell viability ([12]; 1 nM) | cell viability ([12]; 10 nM) | cell viability ([12]; 100 nM) | cell viability ([12]; 1000 nM) | cell viability ([12]; 10000 nM) | cell viability ([13]; 1 nM) | cell viability ([13]; 10 nM) | cell viability ([13]; 100 nM) | cell viability ([13]; 1000 nM) | cell viability ([13]; 10000 nM) | cell viability ([14]; 1 nM) | cell viability ([14]; 10 nM) | cell viability ([14]; 100 nM) | cell viability ([14]; 1000 nM) | cell viability ([14]; 10000 nM) | cell viability ([15]; 1 nM) | cell viability ([15]; 10 nM) | cell viability ([15]; 100 nM) | cell viability ([15]; 1000 nM) | cell viability ([15]; 10000 nM) |
| --- | --- | --- | --- | --- | --- | --- | --- | --- | --- | --- | --- | --- | --- | --- | --- | --- | --- | --- | --- | --- | --- | --- | --- | --- | --- | --- | --- | --- | --- | --- | --- | --- | --- | --- | --- |
| O=C1Cc2c([nH]c3ccc(Br)cc23)-c2ncccc2N1 [1-azakenpaullone] | > 10 µM | > 10 µM | > 10 µM | > 10 µM | > 10 µM | 0 | 0 | 0 | 0 | 0 | 89.6% | 96.3% | 92.8% | 104% | 105% | 98.1% | 99.7% | 95.4% | 109% | 104% | 91.7% | 103% | 96.5% | 101% | 105% | 99.8% | 95.9% | 99.3% | 98.4% | 96.1% | 102% | 94.6% | 101% | 104% | 118% |
| Cc1cnc(-c2ccccc2C(C)C)nc1NCc1ccc(-n2ccnn2)cc1 [ML323] | > 10 µM | > 10 µM | > 10 µM | > 10 µM | > 10 µM | 0.8 | 0.5 | 0 | 0 | 0 | 99.1% | 94.2% | 112% | 96.5% | 82.2% | 90.2% | 101% | 92.2% | 95.8% | 81% | 89.6% | 90% | 87.6% | 89.7% | 99.4% | 94.9% | 103% | 95.8% | 102% | 97.9% | 91.6% | 108% | 105% | 97.3% | 110% |
| CN(C)Cc1cccc(N/C(=C2\C(=O)Nc3cc(C(N)=O)ccc32)c2ccccc2)c1 | > 10 µM | > 10 µM | > 10 µM | > 10 µM | > 10 µM | 0 | 0 | 0 | 0 | 0 | 106% | 105% | 89.4% | 112% | 112% | 102% | 99.7% | 100% | 88.3% | 107% | 98.3% | 102% | 95.6% | 96.2% | 102% | 96.6% | 94.8% | 99% | 93.5% | 101% | 103% | 92.7% | 96.3% | 95.6% | 96% |
| CCCCC(CC)CCC(CC(C)C)OS(=O)(=O)O (stereo not given) [sodium-tetradecyl-sulfate] | > 10 µM | > 10 µM | > 10 µM | > 10 µM | > 10 µM | 0 | 0 | 0 | 0 | 0 | 93.1% | 96.5% | 112% | 86.2% | 98.6% | 100% | 83% | 95.5% | 87.6% | 104% | 101% | 96.1% | 99.7% | 91% | 101% | 103% | 96% | 98.3% | 104% | 99.5% | 98.8% | 91.9% | 103% | 102% | 97.5% |
| C=CC1=C(C(=O)O)N2C(=O)[C@@H](NC(=O)/C(=N\O)c3csc(N)n3)[C@H]2SC1 [cefdinir] | > 10 µM | > 10 µM | > 10 µM | > 10 µM | > 10 µM | 0 | 0 | 0 | 0 | 0 | 110% | 92.9% | 101% | 93.1% | 97.5% | 100% | 98.9% | 90.3% | 101% | 99.2% | 104% | 100% | 99.8% | 97.7% | 99.9% | 94% | 104% | 94.8% | 102% | 100% | 101% | 91.8% | 92.3% | 102% | 101% |
| O[C@@H]1[C@H](O)[C@@H](CCl)O[C@H]1n1cnc2c(NC3CC4CCC3C4)ncnc21 (mixture of isomers) [5'-chloro-5'-deoxy-ENBA-(+/-)] | > 10 µM | > 10 µM | > 10 µM | > 10 µM | > 10 µM | 0.2 | 0.4 | 0 | 0 | 0 | 96% | 99.6% | 96.2% | 99.5% | 85.4% | 98.8% | 99.6% | 99.2% | 97.2% | 86.1% | 96.7% | 97.2% | 94.3% | 91.9% | 91.5% | 104% | 100% | 99.3% | 104% | 97.6% | 99.1% | 98% | 93.3% | 94.8% | 90.2% |
| CN1C(C(=O)Nc2ccccn2)=C(O)c2sc(Cl)cc2S1(=O)=O [lornoxicam] | > 10 µM | > 10 µM | > 10 µM | > 10 µM | > 10 µM | 0 | 0 | 0 | 0 | 0 | 91.1% | 104% | 100% | 104% | 97.4% | 110% | 95% | 99.9% | 86.6% | 95.5% | 92.4% | 98.8% | 94.8% | 97.1% | 91.3% | 100% | 93.8% | 102% | 94.7% | 100% | 95.3% | 100% | 107% | 99.8% | 104% |
| CN1CCN(c2ccc3ccccc3n2)CC1 [N-methylquipazine] | > 10 µM | > 10 µM | > 10 µM | > 10 µM | > 10 µM | 0 | 0 | 0 | 0 | 0 | 99.4% | 96.1% | 98% | 102% | 111% | 102% | 91.4% | 104% | 97.3% | 102% | 97.7% | 97.8% | 95.7% | 97.1% | 111% | 101% | 99.4% | 102% | 96.8% | 98.9% | 106% | 96.2% | 99.2% | 96.4% | 95.1% |
| COc1ccc(/C=C/C(=O)O)cc1 [trans-4-methoxycinnamic-acid] | > 10 µM | > 10 µM | > 10 µM | > 10 µM | > 10 µM | 0 | 0 | 0 | 0 | 0 | 106% | 92% | 100% | 91.7% | 96.3% | 95.1% | 99.6% | 88.7% | 100% | 88.3% | 99.3% | 102% | 98.1% | 103% | 97.7% | 101% | 96.3% | 102% | 98.6% | 97.5% | 103% | 92.2% | 108% | 98% | 98.8% |
| CC(C)(C)c1cc(C(=O)/C(C#N)=N/Nc2cccc(Cl)c2)no1 [ESI-09] | 3.4 µM | 2.75 µM | > 10 µM | > 10 µM | > 10 µM | 3.5 | 3.9 | 0 | 0.2 | 0 | 109% | 102% | 102% | 103% | 31.2% | 99.8% | 96.1% | 104% | 96.6% | 37% | 90% | 94.2% | 91% | 99.3% | 83.3% | 98.1% | 96.1% | 98.4% | 96.1% | 87.6% | 103% | 93.7% | 91.9% | 102% | 95.9% |
| CCN1CCN(c2cc(-c3ccc(F)cc3)c3c(n2)CCCCCC3)CC1 [blonanserin] | > 10 µM | > 10 µM | > 10 µM | > 10 µM | > 10 µM | 0 | 0 | 0 | 0 | 0 | 95.1% | 88% | 92.3% | 92.9% | 92.9% | 94% | 108% | 98.3% | 102% | 95.5% | 98.2% | 101% | 95% | 93.2% | 102% | 100% | 97.3% | 96.4% | 103% | 92.9% | 89.4% | 93.4% | 94.5% | 111% | 92.7% |
| Nc1ccn([C@@H]2O[C@@](CO)(CCl)[C@@H](O)[C@H]2F)c(=O)n1 [ALS-8112] | > 10 µM | > 10 µM | > 10 µM | > 10 µM | > 10 µM | 0.8 | 0 | 0 | 0 | 0 | 90.2% | 94.3% | 104% | 96.1% | 82.8% | 95.2% | 96.4% | 96.1% | 93.9% | 98.9% | 100% | 97.7% | 97% | 98.8% | 94.8% | 102% | 99.2% | 102% | 96.8% | 97.4% | 104% | 102% | 93.8% | 100% | 90.9% |
| O=C(NCc1ccccc1)OCCO [buramate] | > 10 µM | > 10 µM | > 10 µM | > 10 µM | > 10 µM | 1 | 0 | 0 | 0 | 0 | 106% | 97.8% | 104% | 86.8% | 85.8% | 96.1% | 105% | 89.9% | 102% | 88.1% | 100% | 102% | 111% | 92% | 101% | 99.5% | 100% | 99.7% | 100% | 100% | 99.7% | 97.3% | 95.8% | 94.9% | 91.5% |
| COC(=O)c1csc(C(=O)c2c[nH]c3ccccc23)n1 [ITE] | > 10 µM | > 10 µM | > 10 µM | > 10 µM | > 10 µM | 2 | 0 | 0 | 0 | 0 | 104% | 112% | 92.8% | 84.8% | 85.5% | 96.1% | 105% | 101% | 108% | 94.2% | 95% | 96.1% | 92.1% | 98.6% | 97.4% | 101% | 104% | 97.1% | 102% | 96.3% | 105% | 101% | 103% | 105% | 97.5% |

Reference: the supplement of paper PMC13380429
